Experimental data reported in PubChem BioAssay (NCI).
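Test compounds were applied to cells in 96-well plates for 48 hours at 5 doses. The concentration for full growth arrest is given as TGI.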

Experiments:
Test in all cases: NCI-60 cell line screen, 48 h
786-0 renal = system: 786-0 renal
A549 NSCLC = system: A549 NSCLC
BT-549 breast = system: BT-549 breast
CAKI-1 renal = system: CAKI-1 renal
CCRF-CEM leukemia = system: CCRF-CEM leukemia
COLO 205 colon = system: COLO 205 colon
DU-145 prostate = system: DU-145 prostate
EKVX NSCLC = system: EKVX NSCLC
HCC-2998 colon = system: HCC-2998 colon
HCT-116 colon = system: HCT-116 colon
HCT-15 colon = system: HCT-15 colon
HL-60(TB) leukemia = system: HL-60(TB) leukemia
HOP-62 NSCLC = system: HOP-62 NSCLC
HS 578T breast = system: HS 578T breast
HT29 colon = system: HT29 colon
IGROV1 ovarian = system: IGROV1 ovarian
K-562 leukemia = system: K-562 leukemia
KM12 colon = system: KM12 colon
LOX IMVI melanoma = system: LOX IMVI melanoma
M14 melanoma = system: M14 melanoma
MALME-3M melanoma = system: MALME-3M melanoma
MCF7 breast = system: MCF7 breast
MDA-MB-231 breast = system: MDA-MB-231 breast
MDA-MB-435 = system: MDA-MB-435
MDA-N = system: MDA-N
MOLT-4 leukemia = system: MOLT-4 leukemia
NCI-H226 lung = system: NCI-H226 lung
NCI-H23 lung = system: NCI-H23 lung
NCI-H460 lung = system: NCI-H460 lung
NCI-H522 lung = system: NCI-H522 lung
NCI/ADR-RES ovarian = system: NCI/ADR-RES ovarian
OVCAR-3 ovarian = system: OVCAR-3 ovarian
OVCAR-4 ovarian = system: OVCAR-4 ovarian
OVCAR-8 ovarian = system: OVCAR-8 ovarian
PC-3 prostate = system: PC-3 prostate
RPMI-8226 leukemia = system: RPMI-8226 leukemia
RXF 393 renal = system: RXF 393 renal
SF-268 CNS = system: SF-268 CNS
SF-295 CNS = system: SF-295 CNS
SF-539 CNS = system: SF-539 CNS
SK-MEL-2 melanoma = system: SK-MEL-2 melanoma
SK-MEL-28 melanoma = system: SK-MEL-28 melanoma
SK-MEL-5 melanoma = system: SK-MEL-5 melanoma
SK-OV-3 ovarian = system: SK-OV-3 ovarian
SN12C renal = system: SN12C renal
SNB-19 CNS = system: SNB-19 CNS
SNB-75 CNS = system: SNB-75 CNS
SR leukemia = system: SR leukemia
SW-620 colon = system: SW-620 colon
TK-10 renal = system: TK-10 renal
U251 CNS = system: U251 CNS
UACC-257 melanoma = system: UACC-257 melanoma
UACC-62 melanoma = system: UACC-62 melanoma
UO-31 renal = system: UO-31 renal

Measured: TGI

NCCN=C(Nc1ccccc1)Nc1ccccc1
> 100 µM: all assays above
